{
  "source": "paper PMC6185904",
  "about": "(Nature Communications, 2018)",
  "key": {"[1]": {"biological_target": "T1, NhaA (sodium/proton antiporter), dimeric NhaA-GFP (Escherichia coli, UniProt P13738)", "T1 construct": "full-length, C-terminal GFP-8His fusion (pWaldo GFPd), expressed in E. coli Lemo21(DE3), purified in DDM; homodimer", "T1 sequence (P13738 1-388)": "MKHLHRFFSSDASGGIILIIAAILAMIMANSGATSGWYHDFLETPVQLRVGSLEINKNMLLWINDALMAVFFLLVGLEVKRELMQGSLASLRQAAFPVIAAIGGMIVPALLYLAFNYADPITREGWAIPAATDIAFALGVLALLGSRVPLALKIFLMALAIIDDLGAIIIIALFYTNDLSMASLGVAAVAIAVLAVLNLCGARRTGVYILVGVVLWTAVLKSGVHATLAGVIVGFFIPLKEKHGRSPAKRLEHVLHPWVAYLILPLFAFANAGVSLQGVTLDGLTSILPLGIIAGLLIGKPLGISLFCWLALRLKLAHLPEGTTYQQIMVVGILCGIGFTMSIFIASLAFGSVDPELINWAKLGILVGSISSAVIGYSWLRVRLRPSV", "test": "FSEC-TS titration of dimer stabilization, nonlinear regression", "assay_type": "binding", "settings": "pH 7.5, 150 mM NaCl, 0.03% DDM plus 1% beta-OG, heated at 47 °C; 19 CL concentrations; dimer interface site; read-out: CL dependent oligomerization concentration (midpoint)"}, "[2]": {"biological_target": "T1, NhaA (sodium/proton antiporter), dimeric NhaA-GFP", "test": "FSEC-TS thermal shift, purified NhaA-GFP", "assay_type": "binding", "settings": "purified in DDM; dimer"}, "[3]": {"biological_target": "T2, putative Zea mays CMP–sialic acid transporter (Z. mays CMP–Sia) (Zea mays, UniProt B4FZ94)", "T2 construct": "gene ZEAMMB73_Zm00001d046060; full-length synthesized clone, GFP-8His fusion (pDDGFP-2), expressed in S. cerevisiae FGY217; DDM-solubilized membranes or purified", "T2 sequence (B4FZ94 1-322)": "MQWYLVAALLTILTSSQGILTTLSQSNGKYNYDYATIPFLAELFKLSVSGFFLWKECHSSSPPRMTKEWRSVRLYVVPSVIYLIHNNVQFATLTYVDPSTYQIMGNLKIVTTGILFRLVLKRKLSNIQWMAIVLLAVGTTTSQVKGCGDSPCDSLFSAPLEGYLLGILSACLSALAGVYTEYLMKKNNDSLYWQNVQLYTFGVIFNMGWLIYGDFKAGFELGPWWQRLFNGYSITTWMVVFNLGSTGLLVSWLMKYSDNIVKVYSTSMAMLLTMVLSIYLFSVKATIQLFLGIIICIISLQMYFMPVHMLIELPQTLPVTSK", "test": "GFP-TS thermostabilization, DDM-solubilized membranes", "assay_type": "binding", "settings": "5 mM ligand, heated at 54 °C, pH 7.5, 150 mM NaCl, DDM plus 1% beta-OG"}, "[4]": {"biological_target": "T3, human CMP–sialic acid transporter SLC35A1 (human CMP–Sia) (Homo sapiens, UniProt P78382)", "T3 construct": "full-length, GFP-8His fusion (pDDGFP-2), expressed in S. cerevisiae FGY217; DDM-solubilized membranes or purified", "T3 sequence (P78382 1-337)": "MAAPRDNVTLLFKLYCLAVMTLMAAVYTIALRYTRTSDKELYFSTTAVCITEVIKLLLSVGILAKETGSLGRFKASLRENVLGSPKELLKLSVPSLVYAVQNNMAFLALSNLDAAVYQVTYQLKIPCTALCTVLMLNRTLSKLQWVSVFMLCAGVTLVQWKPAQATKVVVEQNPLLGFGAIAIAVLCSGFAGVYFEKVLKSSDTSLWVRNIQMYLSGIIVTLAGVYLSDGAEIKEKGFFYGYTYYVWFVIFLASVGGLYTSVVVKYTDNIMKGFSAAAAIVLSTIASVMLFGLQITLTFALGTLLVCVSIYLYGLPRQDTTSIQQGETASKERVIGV", "test": "GFP-TS thermostabilization, DDM-solubilized membranes", "assay_type": "binding", "settings": "5 mM ligand, heated at 42 °C, pH 7.5, 150 mM NaCl, DDM plus 1% beta-OG"}, "[5]": {"biological_target": "T3, human CMP–sialic acid transporter SLC35A1 (human CMP–Sia)", "test": "GFP-TS titration, one-site fit, DDM-solubilized membranes (also ITC on purified protein)", "description": "GFP-TS titration, one-site fit, DDM-solubilized membranes (also ITC on purified protein) on human CMP–sialic acid transporter SLC35A1 (human CMP–Sia) | we used the GFP-TS to determine CMP binding affinities (Kd) for the plant and human"}, "[6]": {"biological_target": "T4, human NHA2 (Homo sapiens, UniProt Q86UD5)", "T4 construct": "gene SLC9B2; GFP-8His fusion (pDDGFP-2), expressed in S. cerevisiae FGY217, purified in DDM", "T4 sequence (Q86UD5 1-537)": "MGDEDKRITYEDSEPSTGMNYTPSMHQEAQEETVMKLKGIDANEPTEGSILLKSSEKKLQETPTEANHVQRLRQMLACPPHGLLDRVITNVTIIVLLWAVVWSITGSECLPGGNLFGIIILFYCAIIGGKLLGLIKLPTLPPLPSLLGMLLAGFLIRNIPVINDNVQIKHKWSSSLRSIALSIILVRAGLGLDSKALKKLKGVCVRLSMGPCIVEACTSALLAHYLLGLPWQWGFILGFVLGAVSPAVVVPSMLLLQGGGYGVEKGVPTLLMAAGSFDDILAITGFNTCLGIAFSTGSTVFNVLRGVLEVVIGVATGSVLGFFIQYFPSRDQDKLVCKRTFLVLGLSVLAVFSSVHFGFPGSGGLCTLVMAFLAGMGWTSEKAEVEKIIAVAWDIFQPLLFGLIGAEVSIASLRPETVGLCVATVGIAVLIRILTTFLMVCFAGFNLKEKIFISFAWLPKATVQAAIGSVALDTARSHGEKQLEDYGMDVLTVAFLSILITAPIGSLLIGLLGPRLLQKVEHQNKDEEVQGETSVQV", "test": "GFP-TS lipid screen, purified GFP fusion", "assay_type": "binding", "settings": "3 mg/mL lipid, heated at apparent Tm + 5 °C, pH 7.5, 150 mM NaCl, DDM plus 1% beta-OG"}},
  "data": [
    {"smiles": "CCCCCCCC/C=C\\CCCCCCCC(=O)OC[C@H](COP(=O)(O)OCC(O)COP(=O)(O)OC[C@@H](COC(=O)CCCCCCC/C=C\\CCCCCCCC)OC(=O)CCCCCCC/C=C\\CCCCCCCC)OC(=O)CCCCCCC/C=C\\CCCCCCCC", "note": "(stereo partly drawn) [CL, cardiolipin (18:1)]", "values": [
      {"measurement": "EC50", "setting": "[1]", "value": 1400, "unit": "µM"},
      {"measurement": "apparent Tm without to with cardiolipin", "setting": "[2]", "value": "42 to 53", "unit": "°C"}
    ]},
    {"smiles": "CC(=O)N[C@H]1[C@H]([C@H](O)[C@H](O)CO)O[C@](OP(=O)(O)OC[C@H]2O[C@@H](n3ccc(N)nc3=O)[C@H](O)[C@@H]2O)(C(=O)O)C[C@@H]1O", "note": "[CMP–sialic acid]", "values": [
      {"measurement": "supernatant fluorescence after heating", "setting": "[3]", "value": "higher thermostablization for CMP–sialic acid as compared to the addition of sialic acid only"},
      {"measurement": "supernatant fluorescence after heating", "setting": "[4]", "value": "almost identical stabilization profile for substrates was observed for the human CMP–sialic acid transporter"}
    ]},
    {"smiles": "Nc1ccn([C@@H]2O[C@H](COP(=O)(O)O)[C@@H](O)[C@H]2O)c(=O)n1", "note": "[CMP]", "values": [
      {"measurement": "Kd", "setting": "[5]", "value": "19.5 ± 3.8", "unit": "µM"}
    ]},
    {"smiles": "CCCCCCCC/C=C\\CCCCCCCC(=O)OC[C@H](COP(=O)(O)OCC(O)CO)OC(=O)CCCCCCC/C=C\\CCCCCCCC", "note": "(stereo partly drawn) [DOPG]", "values": [
      {"measurement": "supernatant fluorescence after heating", "setting": "[6]", "value": "human NHA2, where the addition of PG was clearly stabilizing"}
    ]}
  ]
}
